Source: patent publication US12084472B2 (Ardelyx, Inc., priority 2015, dated 2024)

molecular target: T1, human TGR5 (Homo sapiens, UniProt Q8TDU6); experiment: Cell-based TGR5 assay (cAMP generation, HTRF); conditions: HEK293 cells stably transfected with human TGR5; cAMP by HTRF; 30 minutes at 37° C.; read-out: pEC50 Human TGR5 (converted)
T1 construct: expressed in transfected cells; host or cells: HEK293
T1 sequence (Q8TDU6 1-330): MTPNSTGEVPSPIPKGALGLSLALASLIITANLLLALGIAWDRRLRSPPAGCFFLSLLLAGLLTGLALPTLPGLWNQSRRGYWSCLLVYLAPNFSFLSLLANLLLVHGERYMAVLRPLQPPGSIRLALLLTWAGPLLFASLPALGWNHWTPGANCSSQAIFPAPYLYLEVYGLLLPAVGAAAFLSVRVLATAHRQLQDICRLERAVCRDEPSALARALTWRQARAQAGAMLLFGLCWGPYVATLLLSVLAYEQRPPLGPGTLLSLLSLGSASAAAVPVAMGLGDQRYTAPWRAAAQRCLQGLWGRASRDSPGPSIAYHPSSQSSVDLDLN
In short: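 Read-out was HTRF detection of cAMP, converted to concentration via a standard curve and fitted (3-parameter logistic) for pEC50 and maximal response. Agonist stimulation used HEK293 cells stably transfected with human TGR5, incubated 30 min at 37° C in IBMX-containing buffer at 0.05 nM to 10 μM compound.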

EC50 | Compound
0.126 to 1 µM | CSc1ccccc1-c1ccncc1C1(NCc2cc(Cl)ccc2Cl)CC1 [Compound I-7, N-[(2,5-dichlorophenyl)methyl]-1-{4-[2-(methylsulfanyl)phenyl]pyridin-3-yl}cyclopropan-1-amine]
0.126 to 1 µM | FC(F)(F)COc1ccccc1-c1ccncc1C1(NCc2cc(Cl)ccc2Cl)CC1 [Compound I-8, N-[(2,5-dichlorophenyl)methyl]-1-{4-[2-(2,2,2-trifluoroethoxy)phenyl]pyridin-3-yl}cyclopropan-1-amine]
0.126 to 1 µM | CCc1ccccc1-c1ccncc1C1(NCc2cc(Cl)ccc2Cl)CC1 [Compound I-9, N-[(2,5-dichlorophenyl)methyl]-1-[4-(2-ethylphenyl)pyridin-3-yl]cyclopropan-1-amine]
0.126 to 1 µM | Clc1ccc(Cl)c(CNC2(c3cnccc3-c3ccccc3C3CC3)CC2)c1 [Compound I-10, 1-[4-(2-cyclopropylphenyl)pyridin-3-yl]-N-[(2,5-dichlorophenyl)methyl]cyclopropan-1-amine]
0.126 to 1 µM | FC(F)(F)Oc1ccccc1-c1ccncc1C1(NCc2cc(Cl)ccc2Cl)CC1 [Compound I-11]
0.126 to 1 µM | COCc1ccccc1-c1ccncc1C1(NCc2cc(Cl)ccc2Cl)CC1 [Compound I-12]
0.126 to 1 µM | Clc1ccc(Cl)c(CNC2(c3cnccc3-c3ccccc3)CC2)c1 [Compound I-14, N-[(2,5-dichlorophenyl)methyl]-1-(4-phenylpyridin-3-yl)cyclopropan-1-amine]
0.126 to 1 µM | CCOc1cc(F)c(F)cc1-c1ccncc1C1(NCc2cc(Cl)ccc2Cl)CC1 [Compound I-15, N-[(2,5-dichlorophenyl)methyl]-1-[4-(2-ethoxy-4,5-difluorophenyl)pyridin-3-yl]cyclopropan-1-amine]
1.26 to 10 µM | Clc1ccc(Cl)c(CNC2(c3cnccc3-c3ccccc3Cl)CC2)c1 [Compound I-16, 1-[4-(2-chlorophenyl)pyridin-3-yl]-N-[(2,5-dichlorophenyl)methyl]cyclopropan-1-amine]
1.26 to 10 µM | Fc1ccccc1-c1ccncc1C1(NCc2cc(Cl)ccc2Cl)CC1 [Compound I-17, N-[(2,5-dichlorophenyl)methyl]-1-[4-(2-fluorophenyl)pyridin-3-yl]cyclopropan-1-amine]
< 0.1 µM | Fc1ccc(-c2ccncc2C2(NCc3cc(Cl)ccc3Cl)CC2)c(OC2CC2)c1 [Compound I-18, 1-[4-(2-cyclopropoxy-4-fluorophenyl)pyridin-3-yl]-N-[(2,5-dichlorophenyl)methyl]cyclopropan-1-amine]
< 0.1 µM | Clc1ccc(Cl)c(CNC2(c3cnccc3-c3ccccc3OC3COC3)CC2)c1 [Compound I-19, N-[(2,5-dichlorophenyl)methyl]-1-{4-[2-(oxetan-3-yloxy)phenyl]pyridin-3-yl}cyclopropan-1-amine]
0.126 to 1 µM | CC(CO)Oc1ccccc1-c1ccncc1C1(NCc2cc(Cl)ccc2Cl)CC1 (centres unmarked) [Compound I-20, 2-{2-[3-(1-{[(2,5-dichlorophenyl)methyl]amino}cyclopropyl)pyridin-4-yl]phenoxy}propan-1-ol]
0.126 to 1 µM | Clc1ccc(Cl)c(CNC2(c3cnccc3-c3ccccc3OC3CCOC3)CC2)c1 (centres unmarked) [Compound I-21, N-[(2,5-dichlorophenyl)methyl]-1-{4-[2-(oxolan-3-yloxy)phenyl]pyridin-3-yl}cyclopropan-1-amine]
1.26 to 10 µM | O[C@@H]1COC[C@H]1Oc1ccccc1-c1ccncc1C1(NCc2cc(Cl)ccc2Cl)CC1 [Compound I-22, (3R,4R)-4-{2-[3-(1-{[(2,5-dichlorophenyl)methyl]amino}cyclopropyl)pyridin-4-yl]phenoxy}oxolan-3-ol]
< 0.1 µM | CSc1ccc(Cl)c(CNC2(c3cnccc3-c3ccccc3OC3CC3)CC2)c1 [Compound I-23, N-{[2-chloro-5-(methylsulfanyl)phenyl]methyl}-1-[4-(2-cyclopropoxyphenyl)pyridin-3-yl]cyclopropan-1-amine]
< 0.1 µM | Cc1ccc(C)c(CNC2(c3cnccc3-c3ccccc3OC3CC3)CC2)c1 [Compound I-24, 1-[4-(2-cyclopropoxyphenyl)pyridin-3-yl]-N-[(2,5-dimethylphenyl)methyl]cyclopropan-1-amine]
< 0.1 µM | CSc1ccc(C)c(CNC2(c3cnccc3-c3ccccc3OC3CC3)CC2)n1 [Compound I-25, 1-[4-(2-cyclopropoxyphenyl)pyridin-3-yl]-N-{[3-methyl-6-(methylsulfanyl)pyridin-2-yl]methyl}cyclopropan-1-amine]
0.126 to 1 µM | Clc1cccc(CNC2(c3cnccc3-c3ccccc3OC3CC3)CC2)c1Cl [Compound I-26, 1-[4-(2-cyclopropoxyphenyl)pyridin-3-yl]-N-[(2,3-dichlorophenyl)methyl]cyclopropan-1-amine]
0.126 to 1 µM | Cc1nc(C)c(CNC2(c3cnccc3-c3ccccc3OC3CC3)CC2)nc1C [Compound I-27, 1-[4-(2-cyclopropoxyphenyl)pyridin-3-yl]-N-[(trimethylpyrazin-2-yl)methyl]cyclopropan-1-amine]
0.126 to 1 µM | Clc1ccc(CNC2(c3cnccc3-c3ccccc3OC3CC3)CC2)c(Cl)c1 [Compound I-28, 1-[4-(2-cyclopropoxyphenyl)pyridin-3-yl]-N-[(2,4-dichlorophenyl)methyl]cyclopropan-1-amine]
0.126 to 1 µM | COc1cc(C)c(CNC2(c3cnccc3-c3ccccc3OC3CC3)CC2)cc1C [Compound I-29, 1-[4-(2-cyclopropoxyphenyl)pyridin-3-yl]-N-[(4-methoxy-2,5-dimethylphenyl)methyl]cyclopropan-1-amine]
0.126 to 1 µM | FC(F)(F)c1ccc(Cl)cc1CNC1(c2cnccc2-c2ccccc2OC2CC2)CC1 [Compound I-30, N-{[5-chloro-2-(trifluoromethyl)phenyl]methyl}-1-[4-(2-cyclopropoxyphenyl)pyridin-3-yl]cyclopropan-1-amine]
< 0.1 µM | Clc1ccc(C2CC2)cc1CNC1(c2cnccc2-c2ccccc2OC2CC2)CC1 [Compound I-31, N-[(2-chloro-5-cyclopropylphenyl)methyl]-1-[4-(2-cyclopropoxyphenyl)pyridin-3-yl]cyclopropan-1-amine]
< 0.1 µM | FC(F)(F)c1ccc(Cl)c(CNC2(c3cnccc3-c3ccccc3OC3CC3)CC2)c1 [Compound I-32, N-{[2-chloro-5-(trifluoromethyl)phenyl]methyl}-1-[4-(2-cyclopropoxyphenyl)pyridin-3-yl]cyclopropan-1-amine]
< 0.1 µM | Cc1ccc(Cl)c(CNC2(c3cnccc3-c3ccccc3OC3CC3)CC2)c1 [Compound I-33, N-[(2-chloro-5-methylphenyl)methyl]-1-[4-(2-cyclopropoxyphenyl)pyridin-3-yl]cyclopropan-1-amine]
< 0.1 µM | Cc1cc(CNC2(c3cnccc3-c3ccccc3OC3CC3)CC2)c(Cl)cn1 [Compound I-34, N-[(5-chloro-2-methylpyridin-4-yl)methyl]-1-[4-(2-cyclopropoxyphenyl)pyridin-3-yl]cyclopropan-1-amine]
< 0.1 µM | Cc1ccc(Cl)c(CNC2(c3cnccc3-c3ccccc3OC3CC3)CC2)n1 [Compound I-35, N-[(3-chloro-6-methylpyridin-2-yl)methyl]-1-[4-(2-cyclopropoxyphenyl)pyridin-3-yl]cyclopropan-1-amine]

Compound | EC50
CC(C)(C)OCc1ccccc1-c1ccncc1C1(NCc2cc(Cl)ccc2Cl)CC1 [Compound I-13, 1-(4-{2-[(tert-butoxy)methyl]phenyl}pyridin-3-yl)-N-[(2,5-dichlorophenyl)methyl]cyclopropan-1-amine] | 0.126 to 1 µM
